A value given as a limit tells only on which side of the number the result lay.

As a reminder, the IC50 is the point on the concentration scale where inhibition reaches its midpoint. Read a high IC50 as weaker potency.

T1 sequence (P61073 whole entry): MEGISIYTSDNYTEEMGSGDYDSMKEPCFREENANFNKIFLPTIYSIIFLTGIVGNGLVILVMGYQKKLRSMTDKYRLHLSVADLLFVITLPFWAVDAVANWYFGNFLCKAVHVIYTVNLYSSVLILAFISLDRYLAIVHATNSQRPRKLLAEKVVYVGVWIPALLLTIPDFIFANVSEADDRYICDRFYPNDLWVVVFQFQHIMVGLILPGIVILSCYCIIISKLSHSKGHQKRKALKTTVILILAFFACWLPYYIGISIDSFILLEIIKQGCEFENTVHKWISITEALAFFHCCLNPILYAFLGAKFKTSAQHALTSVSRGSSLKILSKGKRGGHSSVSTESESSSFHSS

This assay has as its target T1, CXCR4 (human T cell strain CEM cells) (Homo sapiens, UniProt P61073).
T1 construct: a human T cell strain in which CXCR4 is known to be expressed; endogenous in cells; host or cells: CEM cells (human T cell strain)
The assay can be described thus: Inhibition of binding human SDF-1 to CEM cells (125I-SDF-1). The settings on record: 4° C., 60 minutes. As to the method:
Specifically, as a system of screening a compound that inhibits the binding between SDF-1 and CXCR4, for example a system of measuring the binding between iodine-labeled SDF-1 and a human T cell strain in which CXCR4 is known to be expressed is operable.
Study for Inhibition of Binding Human SDF-1 to CEM Cells
To human T cell strain CEM cells in a binding buffer (containing HEPES and BSA), the test compound and ^125I-SDF-1 (PerkinElmer) were added and the mixture was incubated at 4° C. for 60 minutes. The reacted CEM cells were rapidly filtrated with a GF/B membrane filter plate (Packard) to adsorb. The plate was washed with phosphate buffered saline (hereinafter abbreviated to PBS) three times and then dried. Microscint+20 (Packard) was added thereto. An amount of the radioactivity bound to the CEM cells was measured using Top Count (Packard) and inhibition (%) of the test compound was calculated according to the following equation:
Inhibition={(Et−Ea)/(Et−Ec)}×100 [Equation 1]
Et: Amount of radioactivity when the test compound is not added,
Ec: Amount of radioactivity when non-radioactive SDF-1 (Pepro Tech) is added in an amount of 1,000 times as much as ^125I-SDF-1 as a test compound, and
Ea: Amount of radioactivity when the test compound is added.
Molecule `COC(=O)Cc1ccc(CN(Cc2ncc[nH]2)Cc2nccn2CCCN2CCC3(CCN(CC(C)C)CC3)C2)cc1` [Example 21(4), Methyl (4-{[(1H-imidazol-2-ylmethyl)({1-[3-(8-isobutyl-2,8-diazaspiro[4.5]deca-2-yl)propyl]-1H-imidazol-2-yl}methyl)amino]methyl}phenyl)acetate] gave an IC50 of 7.4 nM.

Consider `CCOC(=O)COc1ccc(CN(Cc2ncc[nH]2)Cc2nccn2CCCN2CCC3(CCN(C4CCCCC4)CC3)C2)cc1` [Example 40(12), Ethyl (4-{[({1-[3-(8-cyclohexyl-2,8-diazaspiro[4.5]deca-2-yl)propyl]-1H-imidazol-2-yl}methyl)(1H-imidazol-2-ylmethyl)amino]methyl}phenoxy)acetate], for which the IC50 was not above 3 nM.

Consider `CCOC(=O)COc1cccc(CN(Cc2ncc[nH]2)Cc2nccn2CCCN2CCC3(CCN(C4CCCCC4)CC3)C2)c1` [Example 40(13), Ethyl (3-{[({1-[3-(8-cyclohexyl-2,8-diazaspiro[4.5]deca-2-yl)propyl]-1H-imidazol-2-yl}methyl)(1H-imidazol-2-ylmethyl)amino]methyl}phenoxy)acetate], for which the 50% inhibitory concentration (IC50) is not above 3 nM.

`CCOC(=O)COc1cccc(CN(Cc2ncc[nH]2)Cc2nccn2CCCN2CCC3(CCN(C(CC)CC)CC3)C2)c1` [Example 42(1), Ethyl [3-({[(1-{3-[8-(1-ethylpropyl)-2,8-diazaspiro[4.5]deca-2-yl]propyl}-1H-imidazol-2-yl)methyl] (1H-imidazol-2-ylmethyl)amino}methyl)phenoxy]acetate] showed a half-inhibitory concentration (IC50) not above 3 nM.

For `CCOC(=O)CCc1ccc(CN(Cc2ncc[nH]2)Cc2nccn2CCCN2CCC3(CCN(C(CC)CC)CC3)C2)s1` [Example 42(4), Ethyl 3-[5-({[(1-{3-[8-(1-ethylpropyl)-2,8-diazaspiro[4.5]deca-2-yl]propyl}-1H-imidazol-2-yl)methyl](1H-imidazol-2-ylmethyl)amino}methyl)-2-thienyl]propanoate], the IC50 was found to be 4.4 nM.

In turn, `CCOC(=O)COc1ccc(CN(Cc2ncc[nH]2)Cc2nccn2CCCN2CCC3(CCN(C(CC)CC)CC3)C2)cc1` [Example 42, Ethyl [4-({[(1-{3-[8-(1-ethylpropyl)-2,8-diazaspiro[4.5]deca-2-yl]propyl}-1H-imidazol-2-yl)methyl] (1H-imidazol-2-ylmethyl)amino}methyl)phenoxy]acetate] returned an IC50 of 3 nM.

Consider `CCC(CC)N1CCC2(CCN(CCCn3ccnc3CN(Cc3cccc(SCC(=O)O)c3)Cc3ncc[nH]3)C2)CC1` [Example 43(2), {[3-({[(1-{3-[8-(1-ethylpropyl)-2,8-diazaspiro[4.5]deca-2-yl]propyl}-1H-imidazol-2-yl)methyl](1H-imidazol-2-ylmethyl)amino}methyl)phenyl]thio}acetic acid], for which the IC50 was 9.3 nM.

The molecule `CCC(CC)N1CCC2(CCN(CCCn3ccnc3CN(Cc3ccc4cc(OCC(=O)O)ccc4c3)Cc3ncc[nH]3)C2)CC1` [Example 43(3), {[6-({[(1-{3-[8-(1-ethylpropyl)-2,8-diazaspiro[4.5]deca-2-yl]propyl}-1H-imidazol-2-yl)methyl](1H-imidazol-2-ylmethyl)amino}methyl)-2-naphthyl]oxy}acetic acid] registered an IC50 of 13.6 nM.

For the molecule `CCOC(=O)CCCn1ccnc1CN(C)Cc1nccn1CCCN1CCC2(CCN(CC(C)C)CC2)C1` [Example 47(4), Ethyl 4-(2-{[({1-[3-(8-isobutyl-2,8-diazaspiro[4.5]deca-2-yl)propyl]-1H-imidazol-2-yl}methyl)(methyl)amino]methyl}-1H-imidazol-1-yl)butanoate], the IC50 is 4.3 nM. Compared with the last molecule, the IC50 is about 3.2-fold lower.
